SMILES strings stand for the structures.

hDGAT2, sequence (Q96PD7 whole entry): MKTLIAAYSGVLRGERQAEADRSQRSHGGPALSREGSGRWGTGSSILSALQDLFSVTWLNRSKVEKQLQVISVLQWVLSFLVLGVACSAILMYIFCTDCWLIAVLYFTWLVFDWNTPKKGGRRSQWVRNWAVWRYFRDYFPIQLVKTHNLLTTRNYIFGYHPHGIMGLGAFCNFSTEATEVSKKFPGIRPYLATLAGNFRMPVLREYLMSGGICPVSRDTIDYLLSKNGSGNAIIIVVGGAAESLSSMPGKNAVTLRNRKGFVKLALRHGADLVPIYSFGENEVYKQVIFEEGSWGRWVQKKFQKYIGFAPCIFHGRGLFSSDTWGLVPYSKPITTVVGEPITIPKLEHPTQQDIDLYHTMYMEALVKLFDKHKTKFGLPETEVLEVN

This assay addresses hDGAT2 (Homo sapiens (Human), UniProt Q96PD7). Kind of assay: DGAT2 Enzymatic Activity Assay. The format is biochemical. Particulars: hDGAT2 Sf-9 membrane prep; 25 μM diolein, 10 μM oleoyl-CoA; triolein product by LC/MS/MS; read-out: IC50 values for inhibition of DGAT2. The method, boiled down:
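Membranes from Sf-9 cells expressing untagged hDGAT2 (10 ng/μL) incubated at room temperature with 25 μM diolein and 10 μM oleoyl-CoA in 100 mM Tris pH 7.0, 20 mM MgCl2, 5% ethanol. Triolein product quantified by LC/MS/MS against spiked internal standard; IC50 from 4-parameter sigmoidal fit.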
Consider `Cc1noc(C2CC2C(=O)NCc2ccc(-c3cccc(OC(F)(F)F)c3)c3c2CN(C(=O)NC2CCS(=O)(=O)C2)CC3)n1` (centres unmarked) [Example 60, N-(1,1-dioxidotetrahydrothiophen-3-yl)-8-((2-(3-methyl-1,2,4-oxadiazol-5-yl)cyclopropanecarboxamido)methyl)-5-(3-(trifluoromethoxy)phenyl)-3,4-dihydroisoquinoline-2(1H)-carboxamide], for which the IC50 (in general, the concentration that gives 50% inhibition) was 463 nM. Under `COC(=O)C1CCN(C(=O)N2CCc3c(-c4cccc(OC)c4)ccc(CNC(=O)[C@@H]4C[C@H]4c4ccccc4)c3C2)CC1` [Example 63, methyl 1-(5-(3-methoxyphenyl)-8-(((trans)-2-phenylcyclopropanrcarboxamido)methyl)-1,2,3,4-tetrahydroisoquinoline-2-carbonyl)piperidine-4-carboxylate] stands 3090 nM; under `Cc1noc(C2CC2C(=O)NCc2ccc(-c3cccc(OC(F)(F)F)c3)c3c2CN(C(=O)NC2CCS(=O)(=O)C2)CC3)n1` (centres unmarked) [Example 76, N-(1,1-dioxidotetrahydrothiophen-3-yl)-8-((2-(3-methyl-1,2,4-oxadiazol-5-yl)cyclopropanecarboxamido)methyl)-5-(3-(trifluoromethoxy)phenyl)-3,4-dihydroisoquinoline-2(1H)-carboxamide], 238 nM. On to `Cc1noc(C2CC2C(=O)NCc2ccc(-c3cccc(OC(F)(F)F)c3)c3c2CN(C(=O)NC2CCS(=O)(=O)C2)CC3)n1` (centres unmarked) [Example 78, N-(1,1-dioxidotetrahydrothiophen-3-yl)-8-((2-(3-methyl-1,2,4-oxadiazol-5-yl)cyclopropanecarboxamido)methyl)-5-(3-(trifluoromethoxy)phenyl)-3,4-dihydroisoquinoline-2(1H)-carboxamide], for which the 50% inhibitory concentration (IC50) was found to be 892 nM. As to `Cc1noc(C2CC2C(=O)NCc2ccc(-c3cccc(-n4cccn4)c3)c3c2CN(C(=O)N[C@@]2(C)CCS(=O)(=O)C2)CC3)n1` (stereo partly drawn) [Example 79, 5-(3-(1H-pyrazol-1-yl)phenyl)-N-((S)-3-methyl-1,1-dioxidotetrahydrothiophen-3-yl)-8-((2-(3-methyl-1,2,4-oxadiazol-5-yl)cyclopropanecarboxamido)methyl)-3,4-dihydroisoquinoline-2(1H)-carboxamide], the concentration for half-maximal inhibition (IC50) came out at 98 nM.

`Cc1noc(C2CC2C(=O)NCc2ccc(-c3cccc(OC(F)(F)F)c3)c3c2CN(CC(=O)NC(C)(C)C)CC3)n1` (centres unmarked) [Example 80, N-((2-(2-(tert-butylamino)-2-oxoethyl)-5-(3-(trifluoromethoxy)phenyl)-1,2,3,4-tetrahydroisoquinolin-8-yl)methyl)-2-(3-methyl-1,2,4-oxadiazol-5-yl)cyclopropanecarboxamide]: the IC50 was determined as 477 nM. In the case of `CCN(CC)C(=O)CN1CCc2c(-c3cccc(OC(F)(F)F)c3)ccc(CNC(=O)C3CC3c3nc(C)no3)c2C1` (centres unmarked) [Example 81, N-((2-(2-(diethylamino)-2-oxoethyl)-5-(3-(trifluoromethoxy)phenyl)-1,2,3,4-tetrahydroisoquinolin-8-yl)methyl)-2-(3-methyl-1,2,4-oxadiazol-5-yl)cyclopropanecarboxamide], the IC50 came to 658 nM. For the molecule `Cc1noc(C2CC2C(=O)NCc2ccc(-c3cccc(OC(F)(F)F)c3)c3c2CN(CC(=O)NC2CC2)CC3)n1` (centres unmarked) [Example 82, N-((2-(2-(cyclopropylamino)-2-oxoethyl)-5-(3-(trifluoromethoxy)phenyl)-1,2,3,4-tetrahydroisoquinolin-8-yl)methyl)-2-(3-methyl-1,2,4-oxadiazol-5-yl)cyclopropanecarboxamide], the IC50 is 722 nM. Consider `Cc1noc(C2CC2C(=O)NCc2ccc(-c3cccc(OC(F)(F)F)c3)c3c2CN(CC(N)=O)CC3)n1` (centres unmarked) [Example 83, N-((2-(2-amino-2-oxoethyl)-5-(3-(trifluoromethoxy)phenyl)-1,2,3,4-tetrahydroisoquinolin-8-yl)methyl)-2-(3-methyl-1,2,4-oxadiazol-5-yl)cyclopropanecarboxamide], for which the IC50 came to 1240 nM. Take `COc1ccc(CNC(=O)CN2CCc3c(-c4cccc(OC(F)(F)F)c4)ccc(CNC(=O)C4CC4c4nc(C)no4)c3C2)c(OC)c1` (centres unmarked) [Example 85, N-((2-(2-((2,4-dimethoxybenzyl)amino)-2-oxoethyl)-5-(3-(trifluoromethoxy)phenyl)-1,2,3,4-tetrahydroisoquinolin-8-yl)methyl)-2-(3-methyl-1,2,4-oxadiazol-5-yl)cyclopropanecarboxamide]: the IC50 turned out to be 1540 nM. `Cc1noc(C2CC2C(=O)NCc2ccc(-c3cccc(OC(F)(F)F)c3)c3c2CN(CC(=O)NC2CCC2)CC3)n1` (centres unmarked) [Example 87, N-((2-(2-(cyclobutylamino)-2-oxoethyl)-5-(3-(trifluoromethoxy)phenyl)-1,2,3,4-tetrahydroisoquinolin-8-yl)methyl)-2-(3-methyl-1,2,4-oxadiazol-5-yl)cyclopropanecarboxamide]: the IC50 is 4220 nM. With `Cc1noc(C2CC2C(=O)NCc2ccc(-c3cccc(OC(F)(F)F)c3)c3c2CN(CC(=O)N[C@H](C)c2ccccc2)CC3)n1` (stereo partly drawn) [Example 88, 2-(3-methyl-1,2,4-oxadiazol-5-yl)-N-((2-(2-oxo-2-(((trans)-1-phenylethyl)amino)ethyl)-5-(3-(trifluoromethoxy)phenyl)-1,2,3,4-tetrahydroisoquinolin-8-yl)methyl)cyclopropanecarboxamide], the IC50 is 7600 nM. Then `COc1cccc(-c2ccc(CNC(=O)C3CC3c3ccccc3)c3c2CCN(S(C)(=O)=O)C3)c1` (centres unmarked) [Example 89, N-((5-(3-methoxyphenyl)-2-(methylsulfonyl)-1,2,3,4-tetrahydroisoquinolin-8-yl)methyl)-2-phenylcyclopropanecarboxamide], with 2780 nM; and `COc1cccc(-c2ccc(CNC(=O)C3CC3c3ccccc3)c3c2CCN(Cc2ccccc2)C3)c1` (centres unmarked) [Example 90, N-((2-benzyl-5-(3-methoxyphenyl)-1,2,3,4-tetrahydroisoquinolin-8-yl)methyl)-2-phenylcyclopropanecarboxamide], with 4850 nM. With `COc1cccc(-c2ccc(CNC(=O)C3CC3c3ccccc3)c3c2CCN(CC(F)(F)F)C3)c1` (centres unmarked) [Example 93, N-((5-(3-methoxyphenyl)-2-(2,2,2-trifluoroethyl)-1,2,3,4-tetrahydroisoquinolin-8-yl)methyl)-2-phenylcyclopropanecarboxamide], the IC50 is 1220 nM. In the case of `COC(=O)c1cccc(-c2ccc(CNC(=O)C3CC3c3ccccc3)c3c2CCN(Cc2ccccn2)C3)c1` (centres unmarked) [Example 94, methyl 3-(8-((2-phenylcyclopropanecarboxamido)methyl)-2-(pyridin-2-ylmethyl)-1,2,3,4-tetrahydroisoquinolin-5-yl)benzoate], the IC50 is 247 nM.

`COC(=O)c1cccc(-c2ccc(CNC(=O)C3CC3c3ccccc3)c3c2CCN(Cc2ncn(C)c2C)C3)c1` (centres unmarked) [Example 95, methyl 3-(2-((1,5-dimethyl-1H-imidazol-4-yl)methyl)-8-((2-phenylcyclopropanecarboxamido)methyl)-1,2,3,4-tetrahydroisoquinolin-5-yl)benzoate]: the IC50 is 3780 nM.

For `COC(=O)c1cccc(-c2ccc(CNC(=O)C3CC3c3ccccc3)c3c2CCN(Cc2ccc(F)cc2)C3)c1` (centres unmarked) [Example 98, methyl 3-(2-(4-fluorobenzyl)-8-((2-phenylcyclopropanecarboxamido)methyl)-1,2,3,4-tetrahydroisoquinolin-5-yl)benzoate], the IC50 was determined as 2680 nM.

As to `COC(=O)c1cccc(-c2ccc(CNC(=O)C3CC3c3ccccc3)c3c2CCN(Cc2cccnc2)C3)c1` (centres unmarked) [Example 99, methyl 3-(8-((2-phenylcyclopropanecarboxamido)methyl)-2-(pyridin-3-ylmethyl)-1,2,3,4-tetrahydroisoquinolin-5-yl)benzoate], the IC50 is 3900 nM. Then `COC(=O)c1cccc(-c2ccc(CNC(=O)C3CC3c3ccccc3)c3c2CCN(CCC(F)(F)F)C3)c1` (centres unmarked) [Example 100, methyl 3-(8-((2-phenylcyclopropanecarboxamido)methyl)-2-(3,3,3-trifluoropropyl)-1,2,3,4-tetrahydroisoquinolin-5-yl)benzoate], with 3470 nM; and `CCn1ccnc1CN1CCc2c(-c3cccc(OC(F)(F)F)c3)ccc(CNC(=O)C3C[C@H]3c3nc(C)no3)c2C1` (some centres unmarked) [Example 102], with 456 nM.

For `Cc1noc([C@@H]2CC2C(=O)NCc2ccc(-c3cccc(OC(F)(F)F)c3)c3c2CN(CC(=O)N2[C@H](C)COC[C@H]2C)CC3)n1` (stereo partly drawn) [Example 108, (trans)-N-((2-(2-((3R,5R)-3,5-dimethylmorpholino)-2-oxoethyl)-5-(3-(trifluoromethoxy)phenyl)-1,2,3,4-tetrahydroisoquinolin-8-yl)methyl)-2-(3-methyl-1,2,4-oxadiazol-5-yl)cyclopropanecarboxamide], the half-inhibitory concentration (IC50) is 7380 nM. As for `COc1cccc(-c2ccc(CNC(=O)C3CC3c3ccccc3)c3c2CCN(c2ncccn2)C3)c1` (centres unmarked) [Example 110, N-((5-(3-methoxyphenyl)-2-(pyrimidin-2-yl)-1,2,3,4-tetrahydroisoquinolin-8-yl)methyl)-2-phenylcyclopropanecarboxamide], the IC50 worked out at 3200 nM. For the molecule `COC(=O)c1cccc(-c2ccc(CNC(=O)C3CC3c3ccccc3)c3c2CCN(C(=O)Cc2ccccc2)C3)c1` (centres unmarked) [Example 112, methyl 3-(2-(2-phenylacetyl)-8-((2-phenylcyclopropanecarboxamido)methyl)-1,2,3,4-tetrahydroisoquinolin-5-yl)benzoate], the IC50 is 2930 nM. With `COc1cccc(-c2ccc(CNC(=O)C3CC3c3ccccc3)c3c2CCN(C(=O)CC(C)(C)C)C3)c1` (centres unmarked) [Example 114, N-((2-(3,3-dimethylbutanoyl)-5-(3-methoxyphenyl)-1,2,3,4-tetrahydroisoquinolin-8-yl)methyl)-2-phenylcyclopropanecarboxamide], the IC50 amounted to 714 nM.

Consider `COc1cccc(-c2ccc(CNC(=O)[C@@H]3C[C@H]3c3ccccc3)c3c2CCN(C(=O)C(CO)C(F)(F)F)C3)c1` (some centres unmarked) [Example 118], for which the IC50 was found to be 1310 nM.

Source of the values: patent US10568876B2, “Tetrahydroisoquinoline derivatives useful as inhibitors of diacylglyceride O-acyltransferase 2” (Merck Sharp & Dohme Corp., priority 2014, dated 2020).
